Measured values: US9340590B2 (priority 2011, dated 2016)
Positions of bridges follow the written chain, without caps; N, C: chain ends. Non-standard residues stand in square brackets, D forms with d. Residues, ends and D or L forms follow the SMILES beside them. Arg(Me2s) = CN=C(NC)NCCC[C@H](N)C(=O)O; Arg(Me) = CNC(=N)NCCC[C@H](N)C(=O)O; hArg = N=C(N)NCCCC[C@H](N)C(=O)O; Cit = NC(=O)NCCC[C@H](N)C(=O)O; Orn = NCCC[C@H](N)C(=O)O; Dap = NC[C@H](N)C(=O)O

Assays:
Test in all cases: cell-based
hNav1.7 = hNav1.7 (Homo sapiens, UniProt Q15858); type: cell-based; details: IonWorks Quattro, use-dependent block, hNav1.7; read-out: IWQ Use Nav1.7
hNav1.5 = hNav1.5 (Homo sapiens, UniProt Q14524); details: IonWorks Quattro, use-dependent block, hNav1.5; read-out: IWQ Use Nav1.5
hNav1.3 = hNav1.3 (Homo sapiens, UniProt Q9NY46); details: IonWorks Quattro, use-dependent block, hNav1.3; read-out: IWQ Use Nav1.3
Sequence of hNav1.3 (Q9NY46 whole entry, looked up): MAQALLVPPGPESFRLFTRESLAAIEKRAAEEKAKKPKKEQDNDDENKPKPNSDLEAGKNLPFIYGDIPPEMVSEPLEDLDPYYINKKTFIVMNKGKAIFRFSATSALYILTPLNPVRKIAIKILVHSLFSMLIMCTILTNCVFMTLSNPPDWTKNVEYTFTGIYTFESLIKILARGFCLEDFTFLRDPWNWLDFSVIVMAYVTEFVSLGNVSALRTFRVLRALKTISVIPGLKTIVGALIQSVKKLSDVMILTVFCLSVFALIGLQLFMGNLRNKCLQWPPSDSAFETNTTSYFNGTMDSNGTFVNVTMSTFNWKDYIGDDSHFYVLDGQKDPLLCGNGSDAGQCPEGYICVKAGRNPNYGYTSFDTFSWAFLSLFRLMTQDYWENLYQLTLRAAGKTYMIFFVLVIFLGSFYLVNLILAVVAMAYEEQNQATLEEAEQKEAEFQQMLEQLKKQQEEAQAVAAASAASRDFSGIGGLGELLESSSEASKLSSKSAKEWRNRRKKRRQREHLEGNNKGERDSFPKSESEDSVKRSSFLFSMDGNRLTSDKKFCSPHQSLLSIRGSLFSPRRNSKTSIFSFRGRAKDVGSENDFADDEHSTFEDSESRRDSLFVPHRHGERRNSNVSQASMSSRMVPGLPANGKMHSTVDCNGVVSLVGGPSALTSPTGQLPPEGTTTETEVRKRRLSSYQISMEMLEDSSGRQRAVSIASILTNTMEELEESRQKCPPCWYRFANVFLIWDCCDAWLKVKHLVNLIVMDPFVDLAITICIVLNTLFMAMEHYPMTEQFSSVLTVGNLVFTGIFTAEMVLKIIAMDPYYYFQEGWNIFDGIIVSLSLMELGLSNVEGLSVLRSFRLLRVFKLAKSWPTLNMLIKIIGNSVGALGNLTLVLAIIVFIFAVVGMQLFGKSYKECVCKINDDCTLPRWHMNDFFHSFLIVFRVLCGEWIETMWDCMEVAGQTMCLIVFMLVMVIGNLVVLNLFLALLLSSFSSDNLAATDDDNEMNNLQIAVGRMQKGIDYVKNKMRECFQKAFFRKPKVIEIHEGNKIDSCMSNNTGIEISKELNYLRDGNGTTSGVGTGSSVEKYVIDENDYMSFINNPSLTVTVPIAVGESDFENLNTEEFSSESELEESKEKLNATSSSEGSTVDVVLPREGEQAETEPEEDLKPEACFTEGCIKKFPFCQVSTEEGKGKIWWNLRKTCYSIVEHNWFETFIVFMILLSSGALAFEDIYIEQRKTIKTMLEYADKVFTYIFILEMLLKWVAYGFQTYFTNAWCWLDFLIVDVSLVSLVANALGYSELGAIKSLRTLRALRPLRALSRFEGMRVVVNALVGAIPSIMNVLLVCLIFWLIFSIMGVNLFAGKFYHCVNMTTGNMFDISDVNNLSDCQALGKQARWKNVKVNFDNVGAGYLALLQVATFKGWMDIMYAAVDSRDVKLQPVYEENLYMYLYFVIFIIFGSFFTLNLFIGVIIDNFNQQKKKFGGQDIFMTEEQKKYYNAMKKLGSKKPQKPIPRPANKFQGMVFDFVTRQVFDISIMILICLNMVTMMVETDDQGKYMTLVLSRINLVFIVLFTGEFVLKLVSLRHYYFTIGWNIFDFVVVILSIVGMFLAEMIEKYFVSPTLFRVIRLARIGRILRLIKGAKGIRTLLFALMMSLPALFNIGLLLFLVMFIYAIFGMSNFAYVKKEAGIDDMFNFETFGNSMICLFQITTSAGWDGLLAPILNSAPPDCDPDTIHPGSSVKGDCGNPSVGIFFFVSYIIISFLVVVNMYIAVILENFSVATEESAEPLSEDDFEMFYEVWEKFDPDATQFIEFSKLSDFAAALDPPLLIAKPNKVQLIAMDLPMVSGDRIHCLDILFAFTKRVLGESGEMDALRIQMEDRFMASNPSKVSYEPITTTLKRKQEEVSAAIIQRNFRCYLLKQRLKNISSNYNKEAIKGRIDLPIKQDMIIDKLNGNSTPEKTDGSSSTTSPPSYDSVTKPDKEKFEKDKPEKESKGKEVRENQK

Sequence of hNav1.7 (Q15858 whole entry, looked up): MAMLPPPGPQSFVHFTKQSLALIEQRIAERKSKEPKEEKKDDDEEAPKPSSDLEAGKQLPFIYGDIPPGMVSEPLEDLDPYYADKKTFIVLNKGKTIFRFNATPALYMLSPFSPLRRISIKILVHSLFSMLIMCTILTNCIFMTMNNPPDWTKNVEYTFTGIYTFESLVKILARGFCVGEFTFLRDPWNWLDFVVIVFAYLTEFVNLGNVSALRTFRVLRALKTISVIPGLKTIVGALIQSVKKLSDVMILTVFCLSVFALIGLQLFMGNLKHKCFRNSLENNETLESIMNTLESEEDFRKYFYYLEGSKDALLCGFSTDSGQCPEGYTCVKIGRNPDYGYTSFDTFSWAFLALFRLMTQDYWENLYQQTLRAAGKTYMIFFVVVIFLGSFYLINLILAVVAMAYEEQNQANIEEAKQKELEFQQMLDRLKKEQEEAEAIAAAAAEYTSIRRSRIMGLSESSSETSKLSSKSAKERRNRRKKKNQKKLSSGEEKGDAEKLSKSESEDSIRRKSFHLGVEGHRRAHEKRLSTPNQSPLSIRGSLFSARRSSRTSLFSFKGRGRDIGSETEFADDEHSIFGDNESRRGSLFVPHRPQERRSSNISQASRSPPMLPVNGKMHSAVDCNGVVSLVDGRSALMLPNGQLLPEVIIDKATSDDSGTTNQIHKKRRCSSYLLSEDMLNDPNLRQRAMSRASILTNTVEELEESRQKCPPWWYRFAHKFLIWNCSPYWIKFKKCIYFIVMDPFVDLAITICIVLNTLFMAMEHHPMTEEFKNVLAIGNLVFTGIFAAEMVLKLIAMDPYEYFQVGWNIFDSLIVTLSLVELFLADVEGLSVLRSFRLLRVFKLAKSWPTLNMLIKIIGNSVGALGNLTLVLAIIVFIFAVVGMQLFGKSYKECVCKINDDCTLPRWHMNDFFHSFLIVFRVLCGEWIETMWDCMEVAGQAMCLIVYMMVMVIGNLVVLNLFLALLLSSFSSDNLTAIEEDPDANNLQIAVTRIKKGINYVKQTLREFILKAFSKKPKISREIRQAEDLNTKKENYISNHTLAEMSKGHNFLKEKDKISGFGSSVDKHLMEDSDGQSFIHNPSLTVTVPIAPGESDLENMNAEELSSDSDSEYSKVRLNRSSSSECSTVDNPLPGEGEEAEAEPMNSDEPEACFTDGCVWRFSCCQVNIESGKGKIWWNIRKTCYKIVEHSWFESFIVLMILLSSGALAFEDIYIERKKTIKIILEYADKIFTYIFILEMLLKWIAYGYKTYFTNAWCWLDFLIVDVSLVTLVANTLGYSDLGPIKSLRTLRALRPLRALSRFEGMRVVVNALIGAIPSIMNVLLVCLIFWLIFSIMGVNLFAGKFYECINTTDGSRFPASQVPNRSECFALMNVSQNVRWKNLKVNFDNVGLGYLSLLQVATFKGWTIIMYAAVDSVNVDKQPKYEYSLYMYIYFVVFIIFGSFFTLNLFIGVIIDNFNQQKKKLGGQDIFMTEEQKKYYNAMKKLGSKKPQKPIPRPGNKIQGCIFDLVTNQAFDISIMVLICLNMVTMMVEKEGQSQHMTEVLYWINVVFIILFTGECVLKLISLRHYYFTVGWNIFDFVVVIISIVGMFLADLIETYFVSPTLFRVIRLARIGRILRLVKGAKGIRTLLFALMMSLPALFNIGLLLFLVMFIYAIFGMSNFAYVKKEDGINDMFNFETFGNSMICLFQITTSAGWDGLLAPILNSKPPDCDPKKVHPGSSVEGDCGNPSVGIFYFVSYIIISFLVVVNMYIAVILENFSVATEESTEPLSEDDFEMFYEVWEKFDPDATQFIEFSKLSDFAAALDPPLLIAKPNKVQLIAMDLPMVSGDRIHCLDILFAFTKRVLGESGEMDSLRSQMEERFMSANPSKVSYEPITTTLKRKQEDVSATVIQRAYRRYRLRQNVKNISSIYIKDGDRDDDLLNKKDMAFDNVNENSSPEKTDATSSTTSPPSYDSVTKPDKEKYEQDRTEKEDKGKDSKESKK

Compound	IC50 (hNav1.7) [µM]	IC50 (hNav1.5) [µM]	IC50 (hNav1.3) [µM]
CC[C@H](C)[C@@H]1NC(=O)[C@@H]2CSSC[C@@H]3NC(=O)[C@H](C(C)C)NC(=O)[C@H](CC(C)C)NC(=O)[C@H](CC(N)=O)NC(=O)[C@@H]4CCCN4C(=O)[C@H](CCCNC(=N)N)NC(=O)[C@H](CSSC[C@H](NC(=O)[C@@H](N)CC(=O)O)C(=O)N[C@@H](CC(C)C)C(=O)NCC(=O)N[C@@H](C)C(=O)N[C@@H](CCSC)C(=O)N[C@@H](CCCNC(=N)N)C(=O)N[C@@H](CCCCN)C(=O)N2)NC(=O)[C@H](CSSC[C@@H](C(=O)N[C@@H](CCCCN)C(=O)N[C@@H](Cc2ccc(O)cc2)C(=O)N[C@H](C(=O)N[C@@H](Cc2ccccc2)C(N)=O)C(C)C)NC(=O)[C@H](Cc2c[nH]c4ccccc24)NC(=O)[C@H](CCCNC(=NC)NC)NC(=O)[C@H](Cc2c[nH]cn2)NC(=O)[C@H]([C@@H](C)O)NC(=O)[C@H](CCCNC(=N)N)NC(=O)[C@H](CO)NC3=O)NC(=O)[C@H](CCCCN)NC(=O)[C@H](CC(=O)O)NC(=O)[C@H](CC(N)=O)NC(=O)[C@H](CC(=O)O)NC(=O)[C@@H]2CCCN2C1=O [compound 743] (H-DCLGAMRKCIPDNDKCCRPNLVCSRTH[Arg(Me2s)]WCKYVF-NH2; disulfide 2-17, 9-23, 16-30)	0.22	26.5	1.1
CC[C@H](C)[C@@H]1NC(=O)[C@@H]2CSSC[C@@H]3NC(=O)[C@H](C(C)C)NC(=O)[C@H](CC(C)C)NC(=O)[C@H](CC(N)=O)NC(=O)[C@@H]4CCCN4C(=O)[C@H](CCCNC(=N)N)NC(=O)[C@H](CSSC[C@H](NC(=O)[C@@H](N)CC(=O)O)C(=O)N[C@@H](CC(C)C)C(=O)NCC(=O)N[C@@H](C)C(=O)N[C@@H](CCSC)C(=O)N[C@@H](CCCNC(=N)N)C(=O)N[C@@H](CCCCN)C(=O)N2)NC(=O)[C@H](CSSC[C@@H](C(=O)N[C@@H](CCCCN)C(=O)N[C@@H](Cc2ccc(O)cc2)C(=O)N[C@H](C(=O)N[C@@H](Cc2ccccc2)C(N)=O)C(C)C)NC(=O)[C@H](Cc2c[nH]c4ccccc24)NC(=O)[C@H](CCCCNC(=N)N)NC(=O)[C@H](Cc2c[nH]cn2)NC(=O)[C@H]([C@@H](C)O)NC(=O)[C@H](CCCNC(=N)N)NC(=O)[C@H](CO)NC3=O)NC(=O)[C@H](CCCCN)NC(=O)[C@H](CC(=O)O)NC(=O)[C@H](CC(N)=O)NC(=O)[C@H](CC(=O)O)NC(=O)[C@@H]2CCCN2C1=O [compound 744] (H-DCLGAMRKCIPDNDKCCRPNLVCSRTH[hArg]WCKYVF-NH2; disulfide 2-17, 9-23, 16-30)	0.47	39.7	0.82
CC[C@H](C)[C@@H]1NC(=O)[C@@H]2CSSC[C@@H]3NC(=O)[C@H](C(C)C)NC(=O)[C@H](CC(C)C)NC(=O)[C@H](CC(N)=O)NC(=O)[C@@H]4CCCN4C(=O)[C@H](CCCNC(=N)N)NC(=O)[C@H](CSSC[C@H](NC(=O)[C@@H](N)CC(=O)O)C(=O)N[C@@H](CC(C)C)C(=O)NCC(=O)N[C@@H](C)C(=O)N[C@@H](CCSC)C(=O)N[C@@H](CCCNC(=N)N)C(=O)N[C@@H](CCCCN)C(=O)N2)NC(=O)[C@H](CSSC[C@@H](C(=O)N[C@@H](CCCCN)C(=O)N[C@@H](Cc2ccc(O)cc2)C(=O)N[C@H](C(=O)N[C@@H](Cc2ccccc2)C(N)=O)C(C)C)NC(=O)[C@H](Cc2c[nH]c4ccccc24)NC(=O)[C@H](CCCNC(=N)NC)NC(=O)[C@H](Cc2c[nH]cn2)NC(=O)[C@H]([C@@H](C)O)NC(=O)[C@H](CCCNC(=N)N)NC(=O)[C@H](CO)NC3=O)NC(=O)[C@H](CCCCN)NC(=O)[C@H](CC(=O)O)NC(=O)[C@H](CC(N)=O)NC(=O)[C@H](CC(=O)O)NC(=O)[C@@H]2CCCN2C1=O [compound 745] (H-DCLGAMRKCIPDNDKCCRPNLVCSRTH[Arg(Me)]WCKYVF-NH2; disulfide 2-17, 9-23, 16-30)	0.25	40	0.5
CC[C@H](C)[C@@H]1NC(=O)[C@@H]2CSSC[C@@H]3NC(=O)[C@H](C(C)C)NC(=O)[C@H](CC(C)C)NC(=O)[C@H](CC(N)=O)NC(=O)[C@@H]4CCCN4C(=O)[C@H](CCCNC(=N)N)NC(=O)[C@H](CSSC[C@H](NC(=O)[C@@H](N)CC(=O)O)C(=O)N[C@@H](CC(C)C)C(=O)NCC(=O)N[C@@H](C)C(=O)N[C@@H](CCSC)C(=O)N[C@@H](CCCNC(=N)N)C(=O)N[C@@H](CCCCN)C(=O)N2)NC(=O)[C@H](CSSC[C@@H](C(=O)N[C@@H](CCCCN)C(=O)N[C@@H](Cc2ccc(O)cc2)C(=O)N[C@H](C(=O)N[C@@H](Cc2ccccc2)C(N)=O)C(C)C)NC(=O)[C@H](Cc2c[nH]c4ccccc24)NC(=O)[C@H](CCCN)NC(=O)[C@H](Cc2c[nH]cn2)NC(=O)[C@H]([C@@H](C)O)NC(=O)[C@H](CCCNC(=N)N)NC(=O)[C@H](CO)NC3=O)NC(=O)[C@H](CCCCN)NC(=O)[C@H](CC(=O)O)NC(=O)[C@H](CC(N)=O)NC(=O)[C@H](CC(=O)O)NC(=O)[C@@H]2CCCN2C1=O [compound 746] (H-DCLGAMRKCIPDNDKCCRPNLVCSRTH[Orn]WCKYVF-NH2; disulfide 2-17, 9-23, 16-30)	0.29	20.7	0.76
CC[C@H](C)[C@@H]1NC(=O)[C@@H]2CSSC[C@@H]3NC(=O)[C@H](C(C)C)NC(=O)[C@H](CC(C)C)NC(=O)[C@H](CC(N)=O)NC(=O)[C@@H]4CCCN4C(=O)[C@H](CCCNC(=N)N)NC(=O)[C@H](CSSC[C@H](NC(=O)[C@@H](N)CC(=O)O)C(=O)N[C@@H](CC(C)C)C(=O)NCC(=O)N[C@@H](C)C(=O)N[C@@H](CCSC)C(=O)N[C@@H](CCCNC(=N)N)C(=O)N[C@@H](CCCCN)C(=O)N2)NC(=O)[C@H](CSSC[C@@H](C(=O)N[C@@H](CCCCN)C(=O)N[C@@H](Cc2ccc(O)cc2)C(=O)N[C@H](C(=O)N[C@@H](Cc2ccccc2)C(N)=O)C(C)C)NC(=O)[C@H](Cc2c[nH]c4ccccc24)NC(=O)[C@H](CN)NC(=O)[C@H](Cc2c[nH]cn2)NC(=O)[C@H]([C@@H](C)O)NC(=O)[C@H](CCCNC(=N)N)NC(=O)[C@H](CO)NC3=O)NC(=O)[C@H](CCCCN)NC(=O)[C@H](CC(=O)O)NC(=O)[C@H](CC(N)=O)NC(=O)[C@H](CC(=O)O)NC(=O)[C@@H]2CCCN2C1=O [compound 747] (H-DCLGAMRKCIPDNDKCCRPNLVCSRTH[Dap]WCKYVF-NH2; disulfide 2-17, 9-23, 16-30)	0.37	38.3	0.78
CC[C@H](C)[C@@H]1NC(=O)[C@@H]2CSSC[C@@H]3NC(=O)[C@H](C(C)C)NC(=O)[C@H](CC(C)C)NC(=O)[C@H](CC(N)=O)NC(=O)[C@@H]4CCCN4C(=O)[C@H](CCCNC(=N)N)NC(=O)[C@H](CSSC[C@H](NC(=O)[C@@H](N)CC(=O)O)C(=O)N[C@@H](CC(C)C)C(=O)NCC(=O)N[C@@H](C)C(=O)N[C@@H](CCSC)C(=O)N[C@@H](CCCNC(=N)N)C(=O)N[C@@H](CCCCN)C(=O)N2)NC(=O)[C@H](CSSC[C@@H](C(=O)N[C@@H](CCCCN)C(=O)N[C@@H](Cc2ccc(O)cc2)C(=O)N[C@H](C(=O)N[C@@H](Cc2ccccc2)C(N)=O)C(C)C)NC(=O)[C@H](Cc2c[nH]c4ccccc24)NC(=O)[C@H](CCCNC(N)=O)NC(=O)[C@H](Cc2c[nH]cn2)NC(=O)[C@H]([C@@H](C)O)NC(=O)[C@H](CCCNC(=N)N)NC(=O)[C@H](CO)NC3=O)NC(=O)[C@H](CCCCN)NC(=O)[C@H](CC(=O)O)NC(=O)[C@H](CC(N)=O)NC(=O)[C@H](CC(=O)O)NC(=O)[C@@H]2CCCN2C1=O [compound 748] (H-DCLGAMRKCIPDNDKCCRPNLVCSRTH[Cit]WCKYVF-NH2; disulfide 2-17, 9-23, 16-30)	0.87	24.2	2.7
